Where “and” joins values, the source holds several entries; their conditions need not be identical. Equal entries are not always repeated. Entries after “also recorded” stand apart in the source; their conditions may differ. Where two headings read alike, the source gives them in different places. Blank lines part the entries; values can stand above or below the compound they belong to.
Legend:
lipoxin transport system [1] = test: [3H]LXA4 influx into human neutrophils (unidirectional tracer flux); conditions: for initial [3H]LXA4 influx rate in presence of drug: 5 nM LXA4; for effect on uptake of [3H]LXA4: each at 0.2-0.5 mM; for IC50: read-out: K0.5, concentration at which 50% of lipoxin transport is inhibited, drug 0-500 μM, Michaelis-Menten inhibition kinetics; for IC50 / [3H]LXA4 Influx in presence of eicosanoid: uptake at 10 and 20 min
human neutrophils [2] = test: [3H]LXA4 methyl ester influx into human neutrophils; type: cell-based; conditions: for effect of drugs on [3H]LXA4 ME influx: DISA 0.5 mM, PCP 0.4 mM, mersalyl 0.5 mM
Protocol: Incubations were performed at 37° C. in capped, plastic tubes (Falcon Plastics, Oxnard, Calif.) under various experimental conditions (neutrophils 15-20×10^6 /ml). […] At stated intervals, duplicate aliquots of the cell suspensions were layered onto 0.5 ml of silicone oil (Versilube F-5, General Electric Corp., Waterford, N.Y.) contained in 1.5 ml plastic tubes and centrifuged for 1 min at 8,000 g in a microcentrifuge (Beckman Instruments, Fullerton, Calif.).
The aqueous and oil phases were aspirated and discarded. […] Influx is expressed here as fmol/10^6 cells/min whereas flux rates in all previous work from our laboratory (L.S.) have been reported in meq/liter of cell water.min.
(§1) Influx rates were calculated by fitting the data points to a single exponential equation (Eq. 1). Results have been taken from three experiments based upon duplicate determinations. […] Specific binding was taken as the difference between total and non-specific binding. […] Results are from three separate experiments, each performed in triplicate.

human neutrophils [3] = tested on: human neutrophils
[4] = target: T1, specific lipoxin receptors (Homo sapiens, UniProt P25090); test: [3H]LXA4 ligand binding to human neutrophils
T1 sequence (P25090 1-351): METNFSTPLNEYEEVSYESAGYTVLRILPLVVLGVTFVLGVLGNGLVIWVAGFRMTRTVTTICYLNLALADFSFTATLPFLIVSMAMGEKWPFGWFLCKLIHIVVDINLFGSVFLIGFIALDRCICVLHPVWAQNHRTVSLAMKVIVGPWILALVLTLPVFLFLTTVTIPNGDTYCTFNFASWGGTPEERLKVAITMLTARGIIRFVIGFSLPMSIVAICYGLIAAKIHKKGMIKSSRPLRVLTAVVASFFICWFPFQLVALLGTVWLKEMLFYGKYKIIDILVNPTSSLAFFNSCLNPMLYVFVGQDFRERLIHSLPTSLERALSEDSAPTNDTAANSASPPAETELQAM
Protocol: as §1

lipoxin transport system [5] = test: Irreversible inhibition of [3H]LXA4 influx after pretreatment of neutrophils with sulfhydryl-reactive agents; type: cell-based, human
lipoxin transport system [6] = conditions: not told
[7] = combined: 0.5 mM mersalyl, pHo 6.40
[8] = combined: 0.5 mM DISA, 0.4 mM PCP, pHo 8.40

Compound: CCCCCCCCCCCCCC(=O)O[C@@H]1[C@@H](C)[C@@]2(O)[C@@H](C=C(CO)C[C@]3(O)C(=O)C(C)=C[C@@H]23)[C@@H]2C(C)(C)[C@]12OC(C)=O [PMA, phorbol myristate acetate]
increase in initial rate of [3H]LXA4 influx (lipoxin transport system [1]; 100 nM): ~ 4 fold

Compound: CCCCCCCCCCCCCC(=O)O[C@@H]1[C@@H](C)[C@@]2(O)[C@@H](C=C(CO)C[C@@]3(O)C(=O)C(C)=C[C@@H]23)[C@@H]2C(C)(C)[C@]12OC(C)=O [4-α-PMA]
effect on lipoxin uptake (lipoxin transport system [1]; biologically inactive isomer of PMA): no effect

Compound: COC(CNC(=O)c1ccccc1OCC(=O)O)[CH2][Hg][OH] (centres unmarked) [mersalyl]
inhibition of [3H]LXA4 influx (lipoxin transport system [1]; 0.5 mM drug): 82% and > 80% | initial [3H]LXA4 influx rate in presence of drug (lipoxin transport system [1]; 0.5 mM drug): 0.10±0.01 fmol/10^6 cells/min | effect on uptake of [3H]LXA4 (lipoxin transport system [1]): inhibited the uptake | IC50 (lipoxin transport system [1]): 112 ± 33 µM | [3H]LXA4 ME Influx in presence of drug (human neutrophils [2]; 0.5 mM drug): 500 ± 184 fmol/10^6 cells/min | effect of drugs on [3H]LXA4 ME influx (human neutrophils [2]): completely resistant | efflux final value (relative cell content, combined data) (human neutrophils [3]; [7]): 0.56±0.03 | efflux rate coefficient (combined data) (human neutrophils [3]; [7]): 0.079 ± 0.012 min⁻¹ | effect on binding of lipoxin to specific receptors [4]: not inhibitable | [3H]LXA4 Binding, non-specific, in presence of drug ([4]; 0.5 mM drug, + unlabeled LXA4 0.3 μM): 0.39 ± 0.03 fmol/10^6 cells | [3H]LXA4 Binding, total, in presence of drug ([4]; 0.5 mM drug, no unlabeled LXA4): 1.13 ± 0.05 fmol/10^6 cells | % Inhibition of Transport (irreversible) (lipoxin transport system [5]): ~ 65% and 67 ± 5%

Compound: O=C(O)c1ccccc1Nc1ccccc1 [diphenylamine-2-carboxylate, diphenylamine-2-carboxylic acid]
inhibition of [3H]LXA4 influx (lipoxin transport system [1]; 0.5 mM drug): > 85%

Compound: O=C(O)CI [iodoacetate, iodoacetic acid]
effect of SH-reactive compounds on [3H]LXA4 influx (lipoxin transport system [1]; 1 mM NEM, 0.4 mM iodoacetate): lacked efficacy; also recorded: do not inhibit

effect on binding of lipoxin to specific receptors [4]: not inhibitable
Compound: N#CC(=Cc1cn(-c2ccccc2)c2ccccc12)C(=O)O [UK-5099, α-cyano-β-(1-phenylindol-3-yl)acrylic acid]
inhibition of [3H]LXA4 influx (lipoxin transport system [1]; 0.2 mM drug): 95% | initial [3H]LXA4 influx rate in presence of drug (lipoxin transport system [1]; 0.2 mM drug): 0.030±0.009 fmol/10^6 cells/min | effect on uptake of [3H]LXA4 (lipoxin transport system [1]): inhibited the uptake

Compound: CNc1ccc2oc(C[C@H]3O[C@@]4(CC[C@H]3C)O[C@H]([C@H](C)C(=O)c3ccc[nH]3)[C@H](C)C[C@H]4C)nc2c1C(=O)O [A23187]
enhancement of lipoxin uptake (lipoxin transport system [1]; 1 μM): ~ 1.5 fold

Compound: CCCCC[C@H](O)/C=C/C=C\C/C=C\C/C=C\CCCC(=O)O [15-HETE, (15S)-hydroxy-5,8,11-cis-13-trans-eicosatetraenoic acid]
[3H]LXA4 Influx in presence of eicosanoid (lipoxin transport system [1]; eicosanoid 10 nM): 0.73 ± 0.05 fmol/10^6 cells/min | [3H]LXA4 Influx in presence of eicosanoid (lipoxin transport system [1]; eicosanoid 30 nM): 0.69 ± 0.05 fmol/10^6 cells/min | [3H]LXA4 Influx in presence of eicosanoid (lipoxin transport system [1]; eicosanoid 100 nM): 0.71 ± 0.06 fmol/10^6 cells/min

Compound: CCCCC[C@H](O)/C=C/[C@H]1[C@H](O)CC(=O)[C@@H]1C/C=C\CCCC(=O)O [PGE2, prostaglandin E2]
[3H]LXA4 Influx in presence of eicosanoid (lipoxin transport system [1]; eicosanoid 10 nM): 0.58 ± 0.03 fmol/10^6 cells/min | [3H]LXA4 Influx in presence of eicosanoid (lipoxin transport system [1]; eicosanoid 30 nM): 0.59 ± 0.03 fmol/10^6 cells/min | [3H]LXA4 Influx in presence of eicosanoid (lipoxin transport system [1]; eicosanoid 100 nM): 0.60 ± 0.03 fmol/10^6 cells/min

transport by the lipoxin transport system (lipoxin transport system [6]): not transported
Compound: CCCCC/C=C\C\C=C/C=C/C=C/[C@@H](SC[C@H](N)C(=O)NCC(=O)O)[C@@H](O)CCCC(=O)O [LTD4, (5S)-hydroxy-(6R)-S-cysteinylglycyl-7,9-trans-11,14-ciseicosatetraenoic acid]
[3H]LXA4 Influx in presence of eicosanoid (lipoxin transport system [1]; eicosanoid 10 nM): 0.63 ± 0.03 fmol/10^6 cells/min | [3H]LXA4 Influx in presence of eicosanoid (lipoxin transport system [1]; eicosanoid 30 nM): 0.59 ± 0.04 fmol/10^6 cells/min | [3H]LXA4 Influx in presence of eicosanoid (lipoxin transport system [1]; eicosanoid 100 nM): 0.61 ± 0.03 fmol/10^6 cells/min

[3H]LXA4 ME Influx (human neutrophils [2]; Medium, 5 nM, 37° C., 15 s intervals through 1 min): 535±136 fmol/10^6 cells/min | influx rate relative to LXA4 free acid (human neutrophils [2]; medium alone): 1,000 fold faster | [3H]LXA4 ME Influx (human neutrophils [2]; pHo 6.40): 465 ± 45 fmol/10^6 cells/min | [3H]LXA4 ME Influx (human neutrophils [2]; pHo 8.40): 553 ± 129 fmol/10^6 cells/min
Compound: CCCCC[C@H](O)/C=C/C=C\C=C\C=C\[C@@H](O)[C@@H](O)CCCC(=O)OC [LXA4 ME, lipoxin A4 methyl ester]

Compound: CCCCC/C=C\C/C=C\C/C=C\C/C=C\CCCC(=O)O [Arachidonic Acid, arachidonic acid]
[3H]LXA4 Influx in presence of eicosanoid (lipoxin transport system [1]; eicosanoid 10 nM): 0.69 ± 0.03 fmol/10^6 cells/min | [3H]LXA4 Influx in presence of eicosanoid (lipoxin transport system [1]; eicosanoid 30 nM): 0.66 ± 0.02 fmol/10^6 cells/min | [3H]LXA4 Influx in presence of eicosanoid (lipoxin transport system [1]; eicosanoid 100 nM): 0.70 ± 0.02 fmol/10^6 cells/min

transport by the lipoxin transport system (lipoxin transport system [6]): not transported
Compound: CCCCC/C=C\C\C=C/C=C/C=C/[C@@H](SC[C@H](NC(=O)CC[C@H](N)C(=O)O)C(=O)NCC(=O)O)[C@@H](O)CCCC(=O)O [LTC4, (5S)-hydroxy-(6R)-S-glutathionyl-7,9-trans-11,14-cis-eicosatetraenoic acid]
[3H]LXA4 Influx in presence of eicosanoid (lipoxin transport system [1]; eicosanoid 10 nM): 0.70 ± 0.05 fmol/10^6 cells/min | [3H]LXA4 Influx in presence of eicosanoid (lipoxin transport system [1]; eicosanoid 30 nM): 0.76 ± 0.05 fmol/10^6 cells/min | [3H]LXA4 Influx in presence of eicosanoid (lipoxin transport system [1]; eicosanoid 100 nM): 0.78 ± 0.07 fmol/10^6 cells/min

Compound: Oc1c(Cl)c(Cl)c(Cl)c(Cl)c1Cl [PCP, pentachlorophenol]
inhibition of [3H]LXA4 influx (lipoxin transport system [1]; 0.4 mM drug): 97% and > 80% | initial [3H]LXA4 influx rate in presence of drug (lipoxin transport system [1]; 0.4 mM drug): 0.015±0.004 fmol/10^6 cells/min | effect on uptake of [3H]LXA4 (lipoxin transport system [1]): inhibited the uptake | IC50 (lipoxin transport system [1]): 25 ± 5 µM | [3H]LXA4 ME Influx in presence of drug (human neutrophils [2]; 0.4 mM drug): 439 ± 63 fmol/10^6 cells/min | effect of drugs on [3H]LXA4 ME influx (human neutrophils [2]): completely resistant | efflux final value (relative cell content, combined data set) (human neutrophils [3]; [8]): 0.46±0.02 | efflux rate coefficient (combined data set) (human neutrophils [3]; [8]): 0.098 ± 0.008 min⁻¹ | [3H]LXA4 Binding, non-specific, in presence of drug [4]: 0.36 ± 0.04 fmol/10^6 cells | [3H]LXA4 Binding, total, in presence of drug [4]: 1.18 ± 0.04 fmol/10^6 cells | effect on binding of lipoxin to specific receptors [4]: not inhibitable

Compound: O=C1OC2(c3ccc(N4C(=O)C=CC4=O)cc31)c1cc(Br)c(O)c(Br)c1Oc1c2cc(Br)c(O)c1Br [Eosin-5-maleimide, eosin-5-maleimide]
% Inhibition of Transport (irreversible) (lipoxin transport system [5]; 0.50 mM, pretreatment 30 min at 4° C., washed, influx at 37° C.): 19 ± 6%

Compound: O=C(O)c1cccnc1Nc1cccc(C(F)(F)F)c1 [niflumate, niflumic acid]
inhibition of [3H]LXA4 influx (lipoxin transport system [1]; 0.2 mM drug): > 85%

transport by the lipoxin transport system (lipoxin transport system [6]): not transported
Compound: CCCCC/C=C\C[C@@H](O)/C=C/C=C/C=C\[C@@H](O)CCCC(=O)O [LTB4, (5S,12R)-dihydroxy-6,14-cis-8,10-trans-eicosatetraenoic acid]
[3H]LXA4 Influx in presence of eicosanoid (lipoxin transport system [1]; eicosanoid 10 nM): 0.67 ± 0.04 fmol/10^6 cells/min | [3H]LXA4 Influx in presence of eicosanoid (lipoxin transport system [1]; eicosanoid 30 nM): 0.64 ± 0.04 fmol/10^6 cells/min | [3H]LXA4 Influx in presence of eicosanoid (lipoxin transport system [1]; eicosanoid 100 nM): 0.70 ± 0.06 fmol/10^6 cells/min

Source: patent US5750354A, “Lipoxin transport system and uses therefor” (priority 1994, dated 1998)
